Data set [1] has as its target Toll-like receptor 4 (TLR4) (Homo sapiens, UniProt O00206+Q9Y6Y9). As to conditions: cited from earlier work.
For another data set, the system named is neuropathic pain. As to conditions: animal models; cited from earlier work.
The subject of a further data set is opioid receptors. As to conditions: cited from earlier work.
For another data set, the system named is neuropathic back pain. The experiment in a line: Naltrexone and clonidine alone and in combination in a human subject: pain treatment effect, weight to weight synergy. The format is in vivo. As to conditions: one hour post-dose, naltrexone 4.5 mg alone, clonidine 0.3 mg alone, combinations with naltrexone 2.25 mg. As to the method:
(§1) Naltrexone and clonidine were evaluated alone and in combination on a human subject with the purpose of finding whether or not a combination of the two compounds offers synergistic advantage. Two aspects were evaluated for synergy: one aspect was pain treatment effect comparing the amounts used weight to weight, and the other aspect was an assessment of synergy of side effects.
(§2) The components of the combination were administered to a subject in the following manner: naltrexone 4.5 mg was given in the morning. The clonidine dose was divided into two doses, a dose of 0.1 mg in the morning and a dose of 0.2 mg at bedtime. […] The pain treatment effect of naltrexone and clonidine was evaluated after one hour post-dose.
To determine synergy, the amounts of naltrexone and clonidine administered alone were compared to the combination combined amounts.

The next data set concerns trigeminal neuralgia. The experiment in a line: Case study trigeminal neuralgia, open label, pain intensity scores and percent relief (baseline days 1-6, study drug days 7-30). The data set is classed as in vivo, human. Conditions: from pain level 9. The text has this: Trigeminal neuralgia, also known as suicide disease, is a neuropathic disorder characterized by episodes of intense pain in the face, originating from the trigeminal nerve. It has been described as among the most painful conditions known to mankind. This case study is of a person with a three month history of trigeminal neuralgia. […] The pain involved the right check, upper jaw and the upper front teeth. The pain was constant and described as burning, stinging and aching. It was aggravated by eating, brushing teeth, flossing, chewing and talking. The subject's pain level on average was 5, but it would peak to 9. Ibuprofen brought the pain level from 9 to 7 for two hours, vicoden brought their pain level from 9 to 5, but relief lasted only three to four hours. The subject entered open label study for 3 weeks. […].

Data set [2] in a line: Naltrexone and clonidine alone and in combination in a human subject: side effects over 24 hours. As to conditions: naltrexone 4.5 mg alone, clonidine 0.3 mg alone, combinations with naltrexone 2.25 mg. As to the method: as §1, §2
For data set [3] the following is noted: 0.5 mg, 42 IBS patients; cited from earlier work.
For data set [4] the following is noted: cited from earlier work.
The conditions of data set [5]: full dose; cited from earlier work.
For another data set, the system named is leg pain. In words: Case study leg pain caused by L-5 radiculopathy. The format is in vivo, human.

Read-outs that look alike come from different tables or passages of the source.

Toll-like receptor 4 (TLR4), sequence (O00206 24-839, species assumed): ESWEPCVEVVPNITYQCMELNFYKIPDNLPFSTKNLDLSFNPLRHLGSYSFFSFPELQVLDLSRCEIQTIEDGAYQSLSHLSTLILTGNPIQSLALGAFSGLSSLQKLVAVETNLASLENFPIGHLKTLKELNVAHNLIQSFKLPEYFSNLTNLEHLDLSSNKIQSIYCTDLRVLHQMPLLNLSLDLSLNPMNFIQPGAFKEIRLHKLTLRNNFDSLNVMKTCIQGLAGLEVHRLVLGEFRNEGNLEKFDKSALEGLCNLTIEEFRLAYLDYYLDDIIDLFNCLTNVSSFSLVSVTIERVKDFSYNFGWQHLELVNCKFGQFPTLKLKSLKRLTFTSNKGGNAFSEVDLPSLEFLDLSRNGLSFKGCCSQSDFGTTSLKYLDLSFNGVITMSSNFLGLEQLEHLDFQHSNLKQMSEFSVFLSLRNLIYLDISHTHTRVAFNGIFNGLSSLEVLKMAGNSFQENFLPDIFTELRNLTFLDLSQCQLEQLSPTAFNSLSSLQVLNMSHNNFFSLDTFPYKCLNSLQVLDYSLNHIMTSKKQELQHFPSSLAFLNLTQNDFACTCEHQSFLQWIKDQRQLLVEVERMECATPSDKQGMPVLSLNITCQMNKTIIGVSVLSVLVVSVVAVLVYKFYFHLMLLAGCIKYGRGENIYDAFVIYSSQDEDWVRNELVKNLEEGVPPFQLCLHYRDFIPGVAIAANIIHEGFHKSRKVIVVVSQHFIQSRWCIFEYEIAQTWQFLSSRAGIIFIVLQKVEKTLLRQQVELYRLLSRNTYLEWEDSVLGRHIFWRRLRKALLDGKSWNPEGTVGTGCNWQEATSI
Toll-like receptor 4 (TLR4), sequence (Q9Y6Y9 17-160 limits assumed, species assumed): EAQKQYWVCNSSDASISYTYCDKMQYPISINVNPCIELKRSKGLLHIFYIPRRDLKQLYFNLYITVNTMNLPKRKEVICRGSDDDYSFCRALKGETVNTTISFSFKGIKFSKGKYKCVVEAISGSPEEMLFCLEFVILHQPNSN

Take `C=CCN1CC[C@]23c4c5ccc(O)c4O[C@H]2C(=O)CC[C@]3(O)[C@H]1C5` [(+)-naloxone]: in data set [1], the “action at TLR4” value is reported as “selective antagonists of TLR4”. The “treating symptoms of neuropathic pain” value in the data set with neuropathic pain is listed as “effective”.

With `O=C1CC[C@]2(O)[C@@H]3Cc4ccc(O)c5c4[C@]2(CCN3CC2CC2)[C@@H]1O5` [(+)-naltrexone], in data set [1], the “action at TLR4” value is given as “selective antagonists of TLR4”. Further, the “treating symptoms of neuropathic pain” value with neuropathic pain is “effective”. In addition, in the data set with opioid receptors, the “affinity for opioid receptors” value is listed as “lack affinity”.

As for `Clc1cccc(Cl)c1N=C1NCCN1` [Clonidine, clonidine], in the data set on neuropathic back pain, the “% reversal of pain” value is reported as 50%.

Turning to `CC(C)Cc1ccc(C(C)C(=O)O)cc1` (centres unmarked) [Ibuprofen], the “pain level with previous medication” value in the data set with trigeminal neuralgia was found to be 7.

Turning to `O=C1CC[C@@]2(O)[C@H]3Cc4ccc(O)c5c4[C@@]2(CCN3CC2CC2)[C@H]1O5` [Naltrexone, naltrexone], the “% reversal of pain” value in the data set on neuropathic back pain is given as 100%. Further, the side effects entry in data set [2] is “high incidence of alertness, insomnia and anxiety”. Besides, the side effects entry in [3] is “no side effects were reported”. Also, the “action at TLR4” value in [1] was “antagonists for TLR4”. In addition, in [4] (2.5 mg daily), the Anxiety frequency is 11.9%, the Diarrhea frequency is reported as 6.0% and the Muscle pain frequency is 4.5%. Besides, in data set [4] (5.0 mg daily), the Anxiety frequency is 21.7%, the Diarrhea frequency is recorded as 13.0% and the Muscle pain frequency is 15.2%. Further, in data set [4] (24 patients, of those with side effects), the “side effects that were short-lived” value was 32.4%. Moreover, in data set [4] (121 patients), the “Abdominal pain, Percentage of Participants” value is reported as 11.6%; the “Anorexia, Percentage of Participants” value was 8.3%; the “Anxiety, Percentage of Participants” value is given as 15.7%; the “Diarrhea, Percentage of Participants” value is given as 8.3%. In data set [4] (121 patients), the “Dizziness, Percentage of Participants” value is 10.7%; the “Drowsiness, Percentage of Participants” value is reported as 11.6%; the “Headache, Percentage of Participants” value is given as 11.6%; the “Insomnia, Percentage of Participants” value was 8.3%. For the same compound, in data set [4] (121 patients), the “Mood change, Percentage of Participants” value was 3.3%; the “Muscle pain, Percentage of Participants” value was 8.3%; the “Nausea, Percentage of Participants” value is 12.4%; the “No side effects, Percentage of Participants” value was 38.8%. Besides, in data set [4] (121 patients), the “Terminated Naltrexone because of side effects” value is 16.5%; the “Trouble concentrating, Percentage of Participants” value is reported as 1.7%; the “Vivid dreams, Percentage of Participants” value is on record as 5.0%. Further, the “Total side effects, Percentage of Participants” value (“Total side effects, Percentage” below) in data set [4] (121 patients, listed as LDN) is reported as 61%. Besides, in data set [4] (121 patients, listed as Low Dose Naltrexone), the “Total side effects, Percentage” value is given as 61.2%. Moreover, the “Total side effects, Percentage” value in [4] (121 patients, listed as low dose Naltrexone) was 61/2. The “incidence of nervousness, insomnia, and anxiety” value in data set [4] (low dose) is listed as “double digit incidence”. The “incidence of nervousness, insomnia, and anxiety” value in data set [5] is “single-digit incidence”.

In the case of `CN1CC[C@]23c4c5ccc(O)c4O[C@H]2[C@@H](O)C=C[C@H]3[C@H]1C5` [morphine], the “action at TLR4” value in data set [1] was “TLR4 agonists”.

As for `C=CCN1CC[C@]23c4c5ccc(O)c4O[C@H]2C(=O)CC[C@@]3(O)[C@H]1C5` [naloxone], in data set [1], the “action at TLR4” value is “antagonists for TLR4”.

Consider Etanercept, for which, in the data set with leg pain (three perispinal injections), the “duration of relief from previous treatment” value was “two” and the “relief from previous treatment” value was 10%.

In the case of botulinum toxin, in the data set on leg pain (in vivo), the “duration of relief from previous treatment” value is “two” and the “relief from previous treatment” value came out at 10%.
